We go through 28 molecules from PubChem BioAssay AID602275 (The Scripps Research Institute Molecular Screening Center, 2012).

Several values for one entry are separate records, joined by “and”; a condition that tells them apart may be missing. Equal entries are not always repeated. Activity calls are given as the source filed them. The rule behind the calls is not given here.

For one experiment, the target named is NS3h 1b[con1]. The experiment can be described thus: HCV NS3 helicase inhibition across viral strains, late-stage follow-up, selectivity assay for HCV NS3 helicase inhibitor project, biochemical, real-time fluorescence, strains con1 and JFH1, set 3 (AID 602275). The conditions noted are these: Recombinant NS3h, real-time fluorescence helicase unwinding.
The target in a further experiment is NS3h 2a[JFH1]. The description is as above. The conditions noted are these: Recombinant NS3h, real-time fluorescence helicase unwinding.

Turning to `Cc1ccc2nc(-c3ccc4nc(-c5ccc(NS(=O)(=O)c6ccc(C(F)(F)F)cc6)cc5)sc4c3)sc2c1S(=O)(=O)O`, the values for the IC50 on NS3h 1b[con1] and on NS3h 2a[JFH1] were 32 µM and 35 µM, respectively. Taken in the same sequence, the figures for `Cc1ccc2nc(-c3ccc4nc(-c5ccc(NC(=O)Nc6ccccc6)cc5)sc4c3)sc2c1S(=O)(=O)O` were 4.1 µM and 6 µM. As to `CCOc1ccc2nc(NC(=O)c3ccc4ncsc4c3)sc2c1`, the result at NS3h 1b[con1] was inactive. Also, the IC50 (usually the concentration that gives 50% inhibition) at NS3h 2a[JFH1] was “inactive”. Turning to `Cc1ccc2nc(-c3ccc4nc(-c5ccc(NC(=O)c6cc(C(F)(F)F)cc(C(F)(F)F)c6)cc5)sc4c3)sc2c1S(=O)(=O)O`, on NS3h 2a[JFH1], the IC50 is 28.7 µM.

Consider `COC(=O)c1ccc(C(=O)Nc2ccc(-c3nc4ccc(-c5nc6ccc(C)c(S(=O)(=O)O)c6s5)cc4s3)cc2)cc1`, for which the IC50 is 9.7 µM on NS3h 1b[con1] and 2.4 µM at NS3h 2a[JFH1].

Consider `Cc1ccc2nc(-c3ccc4nc(-c5ccc(NC(=O)c6cccc7ccccc67)cc5)sc4c3)sc2c1S(=O)(=O)O`, for which the IC50 at NS3h 1b[con1] is 4.5 µM; on NS3h 2a[JFH1], 3.9 µM. Consider `O=C(Nc1nc2ccc(Br)cc2s1)c1ccc2ncsc2c1`, for which the result on NS3h 1b[con1] and at NS3h 2a[JFH1] was inactive.

With `Cc1ccc2nc(-c3ccc4nc(-c5ccc(NC(=O)c6ccc(F)cc6)cc5)sc4c3)sc2c1S(=O)(=O)O`, the IC50 at NS3h 1b[con1] was 5.2 µM; at NS3h 2a[JFH1], 3 µM.

For the molecule `Cc1ccc2nc(-c3ccc4nc(-c5ccc(NC(=O)c6cccc(C(F)(F)F)c6)cc5)sc4c3)sc2c1S(=O)(=O)O`, the results for the IC50 on NS3h 1b[con1] and at NS3h 2a[JFH1] were 19.7 µM and 15.9 µM, respectively.

For `COc1ccc(C(=O)Nc2ccc(-c3nc4ccc(-c5nc6ccc(C)c(S(=O)(=O)O)c6s5)cc4s3)cc2)cc1`, the IC50 was 10 µM at NS3h 1b[con1] and 5.4 µM at NS3h 2a[JFH1]. Taken in the same sequence, the figures for `Cc1ccc2nc(-c3ccc4nc(-c5ccc(NC(=S)Nc6ccccc6)cc5)sc4c3)sc2c1S(=O)(=O)O` were 9.3 µM and 9.6 µM. As for `Cc1ccc2nc(-c3ccc(NC(=O)c4ccc(NS(=O)(=O)c5ccccc5)cc4)cc3)sc2c1S(=O)(=O)O`, the result at NS3h 1b[con1] and at NS3h 2a[JFH1] was inactive.

For `CCN(CC)c1ccc(-c2nc3ccc(-c4nc5ccc(C)c(S(=O)(=O)O)c5s4)cc3s2)cc1`, the IC50 at NS3h 1b[con1] is 4.6 µM; on NS3h 2a[JFH1], 4.7 µM. In the case of `Cc1ccc2nc(-c3ccc4nc(-c5ccc(NC(=O)c6ccc(N(C)C)cc6)cc5)sc4c3)sc2c1S(=O)(=O)O`, the values for the IC50 on NS3h 1b[con1] and at NS3h 2a[JFH1] were 11 µM and 6 µM, respectively.

As to `Cc1ccc2nc(-c3ccc4nc(-c5ccc(NC(=O)c6ccccc6)cc5)sc4c3)sc2c1S(=O)(=O)O`, the IC50 at NS3h 1b[con1] was 10.7 µM; at NS3h 2a[JFH1] it was 4.6 µM. Taken in the same sequence, the figures for `Cc1ccc2nc(-c3ccc4nc(-c5ccc(NC(=O)Nc6ccc(Cl)cc6)cc5)sc4c3)sc2c1S(=O)(=O)O` were 3.6 µM and 4.4 µM. For the molecule `NS(=O)(=O)c1ccc2nc(NC(=O)c3ccc4ncsc4c3)sc2c1`, the IC50 at NS3h 1b[con1] was 37.9 µM and 40.5 µM; at NS3h 2a[JFH1], 6 µM and 15.7 µM.

As to `CCN(CC)c1ccc(-c2nc3ccc(C)c(S(=O)(=O)O)c3s2)cc1`, the IC50 on NS3h 1b[con1] was 32.9 µM; at NS3h 2a[JFH1] it was 24.6 µM. For the molecule `Cc1ccc2nc(-c3ccc(N)cc3)sc2c1S(=O)(=O)O`, the IC50 result at NS3h 1b[con1] was “inactive”. Besides, at NS3h 2a[JFH1], the IC50 was 21.1 µM. Taken in the same sequence, the figures for `Cc1ccc2nc(-c3ccc4nc(-c5ccc(NC(=O)c6ccc(NC(=O)OCC7c8ccccc8-c8ccccc87)cc6)cc5)sc4c3)sc2c1S(=O)(=O)O` were 5.4 µM and 5.8 µM.

In the case of `O=C(Nc1ccc(-c2nc3ccccc3[nH]2)cc1)c1ccc2ncsc2c1`, the values for the IC50 on NS3h 1b[con1] and at NS3h 2a[JFH1] were 25.2 µM and 24.3 µM, respectively. `Cc1ccc(NC(=O)Nc2ccc(-c3nc4ccc(-c5nc6ccc(C)c(S(=O)(=O)O)c6s5)cc4s3)cc2)cc1`: the IC50 was 5.3 µM on NS3h 1b[con1] and 4 µM on NS3h 2a[JFH1].

Take `Cc1ccc2nc(-c3ccc(NC(=S)Nc4ccccc4Br)cc3)sc2c1`: on NS3h 1b[con1], the result was inactive. Also, at NS3h 2a[JFH1], the IC50 entry is “inactive”.

Regarding `CCOc1ccc2c(NNC(=O)c3cnccn3)c3c(nc2c1)CCCC3`, the outcome at NS3h 1b[con1] was inactive. In addition, the IC50 entry at NS3h 2a[JFH1] was “inactive”. In the case of `Cc1ccc2nc(-c3ccc4nc(-c5ccc(NC(=O)c6cc(C(F)(F)F)ccc6F)cc5)sc4c3)sc2c1S(=O)(=O)O`, the IC50 at NS3h 1b[con1] was 6.4 µM; on NS3h 2a[JFH1] it was 6.7 µM. Turning to `Cc1ccc2nc(-c3ccc4nc(-c5ccc(NC(=O)c6ccc(CNC(=O)OCC7c8ccccc8-c8ccccc87)cc6)cc5)sc4c3)sc2c1S(=O)(=O)O`, the IC50 is 4.4 µM at NS3h 1b[con1] and 4.6 µM on NS3h 2a[JFH1].

Take `Cc1ccc2nc(-c3ccc(NC(=O)c4ccc(C(F)(F)F)cc4)cc3)sc2c1S(=O)(=O)O`: the result at NS3h 1b[con1] and at NS3h 2a[JFH1] was inactive. As to `Cc1ccc2nc(-c3ccc4nc(-c5ccc(NC(=O)c6ccncc6)cc5)sc4c3)sc2c1S(=O)(=O)O`, the IC50 entry on NS3h 2a[JFH1] is “inactive”.
